Consider one substance from article PMC5723705, “Identification of an antibody‐based immunoassay for measuring direct target binding of RIPK1 inhibitors in cells and tissues” (Pharmacology Research & Perspectives, 2017).

Assay [1] deals with T1, RIPK1 (Receptor-interacting serine/threonine-protein kinase 1) (Homo sapiens, UniProt Q13546).
T1 sequence (Q13546 1-671): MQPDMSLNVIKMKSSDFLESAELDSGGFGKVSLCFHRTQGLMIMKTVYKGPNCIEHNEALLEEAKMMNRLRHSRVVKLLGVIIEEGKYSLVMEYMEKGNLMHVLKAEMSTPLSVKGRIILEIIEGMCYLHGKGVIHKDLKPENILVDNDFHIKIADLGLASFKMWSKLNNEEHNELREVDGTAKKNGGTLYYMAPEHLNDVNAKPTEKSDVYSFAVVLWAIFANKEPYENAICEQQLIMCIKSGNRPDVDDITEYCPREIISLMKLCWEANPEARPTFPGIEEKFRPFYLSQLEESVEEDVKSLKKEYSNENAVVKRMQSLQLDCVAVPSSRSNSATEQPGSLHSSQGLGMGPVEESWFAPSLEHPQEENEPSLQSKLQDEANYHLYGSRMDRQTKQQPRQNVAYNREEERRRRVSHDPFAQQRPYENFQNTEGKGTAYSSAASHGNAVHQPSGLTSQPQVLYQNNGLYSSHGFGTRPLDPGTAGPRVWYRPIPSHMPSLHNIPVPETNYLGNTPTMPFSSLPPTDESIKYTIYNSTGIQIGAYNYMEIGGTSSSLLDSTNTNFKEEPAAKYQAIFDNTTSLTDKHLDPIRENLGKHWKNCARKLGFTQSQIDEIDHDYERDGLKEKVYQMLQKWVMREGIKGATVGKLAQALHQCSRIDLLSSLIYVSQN
As to the kind of experiment: TEAR1 target engagement immunoassay (FREE-RIPK1/TOTAL-RIPK1) in HT29 cells. The class given is cell-based.

In assay [2] the test system is RIPK1 (Receptor-interacting serine/threonine-protein kinase 1). The experiment in a line: TEAR1 target engagement immunoassay in monkey whole blood and tissues after IV dosing. Set-up: species or system Macaca fascicularis.

Take GSK3011253 [GSK'253]: the 50% inhibitory concentration (IC50) (in general, the concentration that gives 50% inhibition) in assay [1] turned out to be 0.5 nM; in assay [2] it was 3.1 ng/mL.
